In patent publication US7544814B2, “[3.2.0] Heterocyclic compounds and methods of using the same” (Nereus Pharmaceuticals, Inc., priority 2004, dated 2009):
“And” between values parts separate entries of the source, which are not always exact repeats. Equal values may be shown once. Read-outs that look alike come from different tables or passages of the source.

Columns and labels:
[1] = system: NF-κB; assay: NF-κB-mediated luciferase reporter gene assay, HEK293 NF-κB/Luc cells, TNF-α stimulation; format: cell-based, human
Outline: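 Cells seeded at 1.5×10^4/well in phenol-red free DMEM, pretreated 1 h with 8-point half-log compound dilutions (DMSO stocks), then stimulated with TNF-α (10 μl of 50 ng/ml solution) for 6 h. Luciferase read as RLU after 10 min with Steady Lite reagent at room temperature.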

[2] = system: MDA-MB-231; assay: Cell growth inhibition (resazurin), MDA-MB-231
[3] = system: U266; assay: Cell growth inhibition (resazurin), U266; conditions: for EC50: 48 hours drug exposure
[4] = system: NCI-H292; assay: Cell growth inhibition (resazurin), NCI-H292
[5] = system: RPMI 8226; assay: Cell growth inhibition (resazurin), RPMI 8226; conditions: for EC50: 48 hours drug exposure
[6] = system: HT-29; assay: Cell growth inhibition (resazurin), HT-29
[7] = system: LeTx-mediated cytotoxicity of RAW 264.7 cells; conditions: read-out: EC50 for inhibition of RAW 264.7 cell cytotoxicity mediated by anthrax lethal toxin; 45 minute preincubation, 1 μg/ml LF and PA, six hours; maximum concentration 330 nM
[8] = biological target: T1, chymotrypsin-like activity of purified rabbit muscle 20S proteasome (Oryctolagus cuniculus, UniProt G1T4Q9); assay: In vitro inhibition of 20S proteasome chymotrypsin-like activity (suc-LLVY-AMC); conditions: EC50 Chymotrypsin-like, Table 6, values in nM
T1 sequence (G1T4Q9 1-263): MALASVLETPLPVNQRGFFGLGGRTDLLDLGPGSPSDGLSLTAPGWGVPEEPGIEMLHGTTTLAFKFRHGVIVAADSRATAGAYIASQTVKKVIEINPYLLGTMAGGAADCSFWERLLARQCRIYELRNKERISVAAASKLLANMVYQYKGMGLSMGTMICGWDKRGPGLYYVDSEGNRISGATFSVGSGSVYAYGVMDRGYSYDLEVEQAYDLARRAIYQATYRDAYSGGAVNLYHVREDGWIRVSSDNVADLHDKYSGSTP

[9] = biological target: T2, caspase-like activity of purified rabbit muscle 20S proteasome (Oryctolagus cuniculus, UniProt A0A5F9DQW2); assay: In vitro inhibition of 20S proteasome caspase-like activity (Z-LLE-AMC)
T2 sequence (A0A5F9DQW2 1-212): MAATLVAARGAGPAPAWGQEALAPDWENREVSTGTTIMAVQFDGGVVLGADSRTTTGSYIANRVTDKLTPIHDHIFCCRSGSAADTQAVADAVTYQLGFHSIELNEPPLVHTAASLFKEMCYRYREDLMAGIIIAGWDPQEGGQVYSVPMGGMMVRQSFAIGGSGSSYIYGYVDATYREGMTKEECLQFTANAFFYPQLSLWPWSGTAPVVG

[10] = system: OVCAR-3; assay: Cell growth inhibition (resazurin), OVCAR-3; conditions: from EC50 values
[11] = biological target: T3, trypsin-like activity of purified rabbit muscle 20S proteasome (Oryctolagus cuniculus, UniProt G1SWK8); assay: In vitro inhibition of 20S proteasome trypsin-like activity (Boc-LRR-AMC); conditions: under the conditions tested
T3 sequence (G1SWK8 1-271): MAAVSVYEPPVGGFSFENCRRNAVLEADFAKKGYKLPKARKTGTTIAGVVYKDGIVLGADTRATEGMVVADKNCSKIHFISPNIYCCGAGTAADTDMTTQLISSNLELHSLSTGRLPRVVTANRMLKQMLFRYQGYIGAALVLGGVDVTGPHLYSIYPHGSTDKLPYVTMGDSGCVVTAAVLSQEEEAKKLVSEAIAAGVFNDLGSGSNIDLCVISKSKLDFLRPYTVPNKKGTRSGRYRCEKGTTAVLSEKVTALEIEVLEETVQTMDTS

[12] = system: PC-3; assay: Cell growth inhibition (resazurin), PC-3; format: cell-based, human
[13] = system: B16-F10; assay: Cell growth inhibition (resazurin), B16-F10
[14] = system: HT-29; assay: Growth inhibition of HT-29 in media containing 1% or 10% FBS; format: cell-based, human; conditions: for EC50: Homo sapiens, HT-29, read-out: HT-29, EC50 (nM) mean ± SD
[15] = biological target: T4, chymotrypsin-like activity of 20S proteasomes in PC-3 cells (Homo sapiens, UniProt P28074); assay: Chymotrypsin-like activity of 20S proteasomes in lysates of treated PC-3 cells; format: cell-based; conditions: for % inhibition of the chymotrypsin-like activity of 20S proteasomes in PC-3 cell lysates: 1 hr incubation
T4 construct: endogenous in cells; host or cells: PC-3 (ATCC CRL-1435)
Description: PC-3 (ATCC, CRL-1435), the human prostate cancer cell line, was cultured in F12K medium supplemented with 2 mM L-glutamine, 100 units/ml penicillin, 100 μg/ml streptomycin and 10% heat inactivated fetal bovine serum at 37° C., 5% CO2 and 95% humidified air. […] DMSO was used as the vehicle control at a final concentration of 0.1%. Following 1 hr incubation of PC-3 cells with the compounds, the cells were washed 3× with ice-cold 1× Dulbecco's Phosphate-Buffered Saline (DPBS, Mediatech, Herndon, Va.). […] Cell debris was pelleted by centrifugation at 14,000 rpm for 10 min, 4° C. and supernatants (=cell lysates) were transferred to a new tube. Protein concentration was determined by the BCA protein assay kit (Pierce Biotechnology, Rockford, Ill.). […] The released coumarin (AMC) was measured fluorometrically by using λex=390 nm and λem=460 nm. The assay was performed in a microtiter plate (Corning 3904) and followed kinetically with measurements every five minutes for 2 hr. The total amount of protein used for each assay was 20 μg. The final concentration of Suc-LLVY-AMC and DMSO was 20 μM and 0.2%, respectively. Results are presented as the percent inhibition of the 20S proteasome chymotrypsin-like activity relative to the DMSO control.

[16] = system: RPMI 8226; assay: cells; conditions: for EC50: Homo sapiens
Description: RPMI 8226 (CCL-155), HT-29 (HTB-38), and B16-F10 (CRL-6475) cells were purchased from ATCC. RPMI 8226 cells were maintained in RPMI 1640 media supplemented with 10% (v/v) FBS, 2 mM L-glutamine, 1 mM sodium pyruvate and Penicillin/Streptomycin at 100 IU/ml and 100 μg/ml, respectively. HT-29 cells were maintained in McCoys 5A supplemented with 10% (v/v) FBS, 2 mM L-glutamine, 1 mM sodium pyruvate, 1% (v/v) non-essential amino acids, 10 mM HEPES and Penicillin/Streptomycin at 100 IU/ml and 100 μg/ml, respectively. B16-F10 cells were maintained in DMEM supplemented with 10% (v/v) FBS, 2 mM L-glutamine, 10 mM HEPES and Penicillin/Streptomycin at 100 IU/ml and 100 μg/ml, respectively.
RPMI 8226 cells were seeded at 2×10^4 cells/well in 90 μl RPMI media containing 10% (v/v) FBS or 1% (v/v) FBS into 96 well black-walled, clear-bottom tissue culture plates. […] Formulae II-16, II-17 and Formula II-18 were serially diluted in media containing 1% or 10% FBS and added in triplicate to the test wells. […] The final concentration of Formula II-18 ranged from 2 μM to 630 pM.

[17] = system: B16-F10; assay: Growth inhibition of B16-F10 in media containing 1% or 10% FBS; format: cell-based, mouse
[18] = biological target: T5, chymotrypsin-like activity of 20S proteasomes in RPMI 8226 cells (Homo sapiens, UniProt P28074); assay: Chymotrypsin-like activity of 20S proteasomes in lysates of treated RPMI 8226 cells; format: cell-based
T5 construct: added to 2.5×10^5/ml RMPI 8226 cells; endogenous in cells; host or cells: RPMI 8226 (ATCC CCL-155)
T5 sequence (P28074 60-263): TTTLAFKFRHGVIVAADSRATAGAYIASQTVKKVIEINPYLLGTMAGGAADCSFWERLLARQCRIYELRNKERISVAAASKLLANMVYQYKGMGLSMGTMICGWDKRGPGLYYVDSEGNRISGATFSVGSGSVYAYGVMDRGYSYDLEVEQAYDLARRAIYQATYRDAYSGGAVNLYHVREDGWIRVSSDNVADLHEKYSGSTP
Description: RPMI 8226 (ATCC, CCL-155), the human multiple myeloma cell line, was cultured in RPMI 1640 medium supplemented with 2 mM L-glutamine, 100 units/ml penicillin, 100 μg/ml streptomycin, 1 mM sodium pyruvate and 10% heat inactivated fetal bovine serum at 37° C., 5% CO2 and 95% humidified air. […] DMSO was used as the vehicle control at a final concentration of 0.1%. Following 1 hr incubation of RMPI 8226 cells with the compounds, the cells were pelleted by centrifugation at 2,000 rpm for 10 sec at room temperature and washed 3× with ice-cold 1× Dulbecco's Phosphate-Buffered Saline (DPBS, Mediatech, Herndon, Va.). DPBS washed cells were lysed on ice for 15 min in lysis buffer (20 mM HEPES, 0.5 mM EDTA, 0.05% Triton X-100, pH 7.3) supplemented with protease inhibitor cocktail (Roche Diagnostics, Indianapolis, Ind.). Cell debris was pelleted by centrifugation at 14,000 rpm for 10 min, 4° C. and supernatants (=cell lysates) were transferred to a new tube. Protein concentration was determined by the BCA protein assay kit (Pierce Biotechnology, Rockford, Ill.). […] The released coumarin (AMC) was measured fluorometrically by using λex=390 nm and λem=460 nm. The assay was performed in a microtiter plate (Corning 3904) and followed kinetically with measurements every five minutes for 2 hr. The total amount of protein used for each assay was 20 μg. The final concentration of Suc-LLVY-AMC and DMSO was 20 μM and 0.2%, respectively.

[19] = PC-3, read-out: % inhibition of the chymotrypsin-like activity of 20S proteasomes in PC-3 cell lysates
[20] = RPMI-8226, read-out: % inhibition of the chymotrypsin-like activity of 20S proteasomes in RPMI 8226 cell lysates

C[C@@]12OC(=O)[C@]1([C@@H](O)[C@H]1CCCC3OC31)NC(=O)[C@@H]2CCCl (single isomer, unassigned) [Formula II-5B]
effect on luciferase activity upon TNF-α stimulation, in words ([1]; pretreatment of NF-κB/Luc 293 cells): dose-dependent decrease
EC50 ([1]; read-out: EC50, NF-κB-mediated luciferase reporter gene assay, Table 5, values in nM, 1 hr pretreatment, TNF-α 6 hr): 279 nM
cytotoxicity against MDA-MB-231, in words ([2]; from EC50 values): cytotoxic
EC50 ([2]; read-out: EC50 against MDA-MB-231, Table 1, 48 hours drug exposure, mean ± SD where n≥3): 957 nM
cytotoxicity against U266, in words ([3]; from EC50 values): cytotoxic
EC50 ([3]; read-out: EC50 against U266, Table 1): 111 nM
EC50 ([3]; read-out: U266 EC50, Table 2): 118 nM and 111 nM
cytotoxicity against NCI-H292, in words ([4]; from EC50 values): cytotoxic
EC50 ([4]; read-out: EC50 against NCI-H292, Table 1, 48 hours drug exposure, mean ± SD where n≥3): 1250 nM
cytotoxicity against RPMI 8226, in words ([5]; from EC50 values): cytotoxic
EC50 ([5]; read-out: EC50 against RPMI 8226, Table 1): 328 nM
EC50 ([5]; read-out: RPMI 8226 EC50, Table 2, mean ± SD where n≥3): 326 nM and 328 nM
cytotoxicity against HT-29, in words ([6]; from EC50 values): cytotoxic
EC50 ([6]; read-out: EC50 against HT-29, Table 1, 48 hours drug exposure, mean ± SD where n≥3): 1210 nM
EC50 [7]: 45 nM
EC50 [8]: 85 nM
EC50 ([9]; EC50 Caspase-like, Table 6, values in μM): 3.8 µM and 2.9 µM
EC50 ([9]; EC50 values, caspase-like activity, range in mixed units, summary of Table 6, range from nM to μM): 0.956 to 8.7 µM
cytotoxicity against OVCAR-3, in words [10]: cytotoxic
inhibition of the trypsin-like activity of the 20S proteasome, in words [11]: able to inhibit
EC50 ([12]; Table 1, 48 hours drug exposure, mean ± SD where n≥3, read-out: EC50 against PC-3): 1330 nM
cytotoxicity against PC-3, in words ([12]; from EC50 values): cytotoxic
cytotoxicity against B16-F10, in words ([13]; from EC50 values): cytotoxic
EC50 ([13]; read-out: EC50 against B16-F10, Table 1, 48 hours drug exposure, mean ± SD where n≥3): 1140 nM

C[C@@]12OC(=O)[C@]1([C@@H](O)[C@@H]1C=CCCC1)NC(=O)[C@@H]2CCCl [Formula II-16]
EC50 ([1]; Homo sapiens, HEK293, Table 12, read-out: NF-κB EC50): 11 ± 3 nM
cytotoxicity against HT-29 in media containing 1% or 10% FBS, in words ([14]; 1% or 10% FBS): cytotoxic
EC50 ([14]; media containing 1% FBS): 16 ± 5 nM
EC50 ([14]; media containing 10% FBS): 23 ± 10 nM
% inhibition of the chymotrypsin-like activity of 20S proteasomes in PC-3 cell lysates ([15]; 5 nM): 69%
% inhibition of the chymotrypsin-like activity of 20S proteasomes in PC-3 cell lysates ([15]; 50 nM, 0.05 µM): completely inhibit
inhibition at 0.005 µM [15, 19]: 69%
inhibition at 0.05 µM [15, 19]: 98%
cytotoxicity against RPMI 8226 in media containing 1% or 10% FBS, in words ([16]; 1% or 10% FBS): cytotoxic
EC50 ([16]; RPMI-8226, read-out: 1% FBS, EC50, RPMI 8226, media containing 1% FBS, single experiments): 6.2 nM
EC50 ([16]; RPMI-8226, read-out: 10% FBS, EC50, RPMI 8226, media containing 10% FBS, single experiments): 12 nM
EC50 ([16]; RPMI-8226, read-out: Mean 10% FBS, EC50, RPMI 8226, media containing 10% FBS, mean): 11 nM
cytotoxicity against B16-F10 in media containing 1% or 10% FBS, in words ([17]; 1% or 10% FBS): cytotoxic
EC50 ([17]; Mus musculus, B16-F10, read-out: B16-F10, EC50 (nM) mean ± SD, media containing 1% FBS): 18 ± 9 nM
% inhibition of the chymotrypsin-like activity of 20S proteasomes in RPMI 8226 cell lysates ([18]; 100 nM, 1 hr incubation, mean ± SD, n = 3, 0.1 µM): completely inhibit
inhibition at 0.001 µM [18, 20]: 30 ± 7%
inhibition at 0.005 µM [18, 20]: 85 ± 7%
inhibition at 0.01 µM [18, 20]: 94 ± 3%
inhibition at 0.05 µM [18, 20]: 97%
inhibition at 0.1 µM [18, 20]: 98 ± 1%
